# According to patent US11697646B2, “Triazole N-linked carbamoyl cyclohexyl acids as LPA antagonists” (BRISTOL-MYERS SQUIBB COMPANY, priority 2017, dated 2023):
# Biological target: T1, human LPA1 (Homo sapiens, UniProt Q92633)
# T1 construct: expressed in transfected cells; host or cells: Chinese hamster ovary (CHO) cells
# Assay: LPA1 functional antagonist assay (calcium flux)
# Assay type: cell-based
# Details: CHO cells overexpressing human LPA1; calcium flux induced by 10 nM LPA; read-out: hLPA1 IC50
# Method: The effectiveness of compounds of the present invention as LPA1 inhibitors can be determined in an LPA1 functional antagonist assay as follows:
# The cells were then equilibrated to room temperature for 30 minutes before the assay. […] IC50 values were determined by fitting data to a 4-parameter logistic equation (GraphPad Prism, San Diego Calif.).
# T1 sequence (Q92633 whole entry): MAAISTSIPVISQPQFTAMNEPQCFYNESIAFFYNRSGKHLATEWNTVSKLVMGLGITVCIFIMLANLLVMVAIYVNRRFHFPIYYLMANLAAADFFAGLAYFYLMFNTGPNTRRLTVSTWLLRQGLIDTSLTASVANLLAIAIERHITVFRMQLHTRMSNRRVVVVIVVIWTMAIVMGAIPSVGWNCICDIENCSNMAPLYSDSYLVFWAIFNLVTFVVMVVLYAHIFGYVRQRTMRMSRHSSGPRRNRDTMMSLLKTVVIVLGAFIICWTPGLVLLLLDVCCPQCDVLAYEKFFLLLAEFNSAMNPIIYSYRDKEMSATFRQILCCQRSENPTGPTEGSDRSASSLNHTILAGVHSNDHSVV
row,SMILES,IC50 [nM]
1,Cc1nc(-c2nnn(C)c2NC(=O)OCC2CCC2)ccc1O[C@H]1CCC[C@H](C(=O)O)C1 [Example 75],22
2,"Cc1nc(-c2nnn(C)c2NC(=O)OCC(C)C)ccc1O[C@H]1CCC[C@H](C(=O)O)C1 [Example 78, (1S,3S)-3-((6-(5-((isobutoxy-carbonyl)amino)-1-methyl-1H-1,2,3-triazol-4-yl)-2-methylpyridin-3-yl)oxy)cyclohexane-1-carboxylic acid]",29
3,"CC(C)COC(=O)Nc1c(-c2ccc(O[C@H]3CCC[C@H](C(=O)O)C3)cn2)nnn1C [Example 87, (1S,3S)-3-((6-(5-((isobutoxy-carbonyl)amino)-1-methyl-1H-1,2,3-triazol-4-yl)pyridin-3-yl)oxy)cyclohexane-1-carboxylic acid]",219
4,CCCCCOC(=O)Nc1c(-c2ccc(O[C@H]3CCC[C@H](C(=O)O)C3)cn2)nnn1C [Example 88],34
5,"CCCCOC(=O)Nc1c(-c2ccc(O[C@H]3CCC[C@H](C(=O)O)C3)cn2)nnn1C [Example 89, (1S,3S)-3-((6-(5-((butoxycarbonyl)amino)-1-methyl-1H-1,2,3-triazol-4-yl)pyridin-3-yl)oxy)cyclohexane-1-carboxylic acid]",66
6,"Cn1nnc(-c2ccc(O[C@H]3CCC[C@H](C(=O)O)C3)cn2)c1NC(=O)OC1CCCC1 [Example 90, (1S,3S)-3-((6-(5-(((cyclopentyloxy)carbonyl)amino)-1-methyl-1H-1,2,3-triazol-4-yl)pyridin-3-yl)oxy)cyclohexane-1-carboxylic acid]",149
7,"CC(C)COC(=O)NCc1c(-c2ccc(O[C@H]3CCC[C@H](C(=O)O)C3)c(C(F)(F)F)n2)nnn1C [Example 93, (1S,3S)-3-((6-(5-(((isobutoxy-carbonyl)amino)methyl)-1-methyl-1H-1,2,3-triazol-4-yl)-2-(trifluoro-methyl)pyridin-3-yl)oxy)cyclohexane-1-carboxylic acid]",25
8,"CCCCOC(=O)NCc1c(-c2ccc(O[C@H]3CCC[C@H](C(=O)O)C3)c(C(F)(F)F)n2)nnn1C [Example 94, (1S,3S)-3-((6-(5-(((butoxycarbonyl)amino)methyl)-1-methyl-1H-1,2,3-triazol-4-yl)-2-(trifluoromethyl)pyridin-3-yl)oxy)cyclohexane-1-carboxylic acid]",14
9,"Cn1nnc(-c2ccc(O[C@H]3CCC[C@H](C(=O)O)C3)c(C(F)(F)F)n2)c1CNC(=O)OCCCCF [Example 97, (1S,3S)-3-((6-(5-((((4-fluorobutoxy)carbonyl)amino)methyl)-1-methyl-1H-1,2,3-triazol-4-yl)-2-(trifluoro-methyl)pyridin-3-yl)oxy)cyclohexane-1-carboxylic acid]",25
10,"Cn1nnc(-c2ccc(O[C@H]3CCC[C@H](C(=O)O)C3)c(C(F)F)n2)c1CNC(=O)OCc1ccccc1 [Example 98, (1S,3S)-3-((6-(5-((((benzyloxy)carbonyl)amino)methyl)-1-methyl-1H-1,2,3-triazol-4-yl)-2-(difluoro-methyl)pyridin-3-yl)oxy)cyclohexane-1-carboxylic acid]",33
11,"CC(C)COC(=O)NCc1c(-c2ccc(O[C@H]3CCC[C@H](C(=O)O)C3)c(C(F)F)n2)nnn1C [Example 99, (1S,3S)-3-((2-(difluoromethyl)-6-(5-(((isobutoxycarbonyl)amino)methyl)-1-methyl-1H-1,2,3-triazol-4-yl)pyridin-3-yl)oxy)cyclohexane-1-carboxylic acid]",71
12,"CCCCOC(=O)NCc1c(-c2ccc(O[C@H]3CCC[C@H](C(=O)O)C3)c(C(F)F)n2)nnn1C [Example 100, (1S,3S)-3-((6-(5-(((butoxycarbonyl)amino)methyl)-1-methyl-1H-1,2,3-triazol-4-yl)-2-(difluoromethyl)pyridin-3-yl)oxy)cyclohexane-1-carboxylic acid]",39
13,"CCCOC(=O)NCc1c(-c2ccc(O[C@H]3CCC[C@H](C(=O)O)C3)c(C(F)F)n2)nnn1C [Example 101, (1S,3S)-3-((2-(difluoromethyl)-6-(1-methyl-5-(((propoxycarbonyl)amino)methyl)-1H-1,2,3-triazol-4-yl)pyridin-3-yl)oxy)cyclohexane-1-carboxylic acid]",2030

# The next lines start with the values.
row,IC50 [nM],SMILES
1,11,"Cc1nc(-c2nnn(C)c2NC(=O)OCCC2CC2)ccc1O[C@H]1CCC[C@H](C(=O)O)C1 [Example 73, (1S,3S)-3-((6-(5-(((2-cyclopropyl-ethoxy)carbonyl)amino)-1-methyl-1H-1,2,3-triazol-4-yl)-2-methyl-pyridin-3-yl)oxy)cyclohexane-1-carboxylic acid]"
2,14,"Cc1nc(-c2nnn(C)c2NC(=O)OCC2CC2)ccc1O[C@H]1CCC[C@H](C(=O)O)C1 [Example 74, (1S,3S)-3-((6-(5-(((cyclopropyl-methoxy)carbonyl)amino)-1-methyl-1H-1,2,3-triazol-4-yl)-2-methyl-pyridin-3-yl)oxy)cyclohexane-1-carboxylic acid]"
3,19,"Cc1nc(-c2nnn(C)c2NC(=O)OCC2CCCCC2)ccc1O[C@H]1CCC[C@H](C(=O)O)C1 [Example 76, (1S,3S)-3-((6-(5-(((cyclohexyl-methoxy)carbonyl)amino)-1-methyl-1H-1,2,3-triazol-4-yl)-2-methyl-pyridin-3-yl)oxy)cyclohexane-1-carboxylic acid]"
4,20,"Cc1nc(-c2nnn(C)c2NC(=O)OCCC(C)C)ccc1O[C@H]1CCC[C@H](C(=O)O)C1 [Example 77, (1S,3S)-3-((6-(5-(((isopentyloxy)carbonyl)amino)-1-methyl-1H-1,2,3-triazol-4-yl)-2-methylpyridin-3-yl)oxy)cyclohexane-1-carboxylic acid]"
5,32,"Cc1nc(-c2nnn(C)c2NC(=O)OCC2CCCC2)ccc1O[C@H]1CCC[C@H](C(=O)O)C1 [Example 79, (1S,3S)-3-((6-(5-(((cyclopentylmethoxy)carbonyl)amino)-1-methyl-1H-1,2,3-triazol-4-yl)-2-methylpyridin-3-yl)oxy)cyclohexane-1-carboxylic acid]"
6,37,"Cc1nc(-c2nnn(C)c2NC(=O)OCc2ccccc2)ccc1O[C@H]1CCC[C@H](C(=O)O)C1 [Example 80, (1S,3S)-3-((6-(5-(((benzyloxy)carbonyl)amino)-1-methyl-1H-1,2,3-triazol-4-yl)-2-methylpyridin-3-yl)oxy)cyclohexane-1-carboxylic acid]"
7,56,Cn1nnc(-c2ccc(O[C@H]3CCC[C@H](C(=O)O)C3)cn2)c1NC(=O)OCC1CCC1 [Example 81]
8,79,"C[C@@H](OC(=O)Nc1c(-c2ccc(O[C@H]3CCC[C@H](C(=O)O)C3)cn2)nnn1C)C1CC1 [Example 82, (1S,3S)-3-((6-(5-((((R)-1-cyclopropyl-ethoxy)carbonyl)amino)-1-methyl-1H-1,2,3-triazol-4-yl)pyridin-3-yl)oxy)cyclohexane-1-carboxylic acid]"
9,178,"Cn1nnc(-c2ccc(O[C@H]3CCC[C@H](C(=O)O)C3)cn2)c1NC(=O)OCC1CC1 [Example 83, (1S,3S)-3-((6-(5-(((cyclopropyl-methoxy)carbonyl)amino)-1-methyl-1H-1,2,3-triazol-4-yl)pyridin-3-yl)oxy)cyclohexane-1-carboxylic acid]"
10,38,"Cn1nnc(-c2ccc(O[C@H]3CCC[C@H](C(=O)O)C3)cn2)c1NC(=O)OCCC1CC1 [Example 84, (1S,3S)-3-((6-(5-(((2-cyclopropyl-ethoxy)carbonyl)amino)-1-methyl-1H-1,2,3-triazol-4-yl)pyridin-3-yl)oxy)cyclohexane-1-carboxylic acid]"
11,115,"CC(C)CCOC(=O)Nc1c(-c2ccc(O[C@H]3CCC[C@H](C(=O)O)C3)cn2)nnn1C [Example 85, (1S,3S)-3-((6-(5-(((isopentyloxy)carbonyl)amino)-1-methyl-1H-1,2,3-triazol-4-yl)pyridin-3-yl)oxy)cyclohexane-1-carboxylic acid]"
12,36,"Cn1nnc(-c2ccc(O[C@H]3CCC[C@H](C(=O)O)C3)cn2)c1NC(=O)OCC1CCCCC1 [Example 86, (1S,3S)-3-((6-(5-(((cyclohexyl-methoxy)carbonyl)amino)-1-methyl-1H-1,2,3-triazol-4-yl)pyridin-3-yl)oxy)cyclohexane-1-carboxylic acid]"
13,35,"C[C@@H](OC(=O)Nc1c(-c2ccc(O[C@H]3CCC[C@H](C(=O)O)C3)cn2)nnn1C)c1ccccc1 [Example 91, (1S,3S)-3-((6-(1-methyl-5-((((R)-1-phenylethoxy)carbonyl)amino)-1H-1,2,3-triazol-4-yl)pyridin-3-yl)oxy)cyclohexane-1-carboxylic acid]"
14,14,"Cn1nnc(-c2ccc(O[C@H]3CCC[C@H](C(=O)O)C3)c(C(F)(F)F)n2)c1CNC(=O)OCc1ccccc1 [Example 92, (1S,3S)-3-((6-(5-((((benzyloxy)carbonyl)amino)methyl)-1-methyl-1H-1,2,3-triazol-4-yl)-2-(trifluoro-methyl)pyridin-3-yl)oxy)cyclohexane-1-carboxylic acid]"
15,867,"CCCOC(=O)NCc1c(-c2ccc(O[C@H]3CCC[C@H](C(=O)O)C3)c(C(F)(F)F)n2)nnn1C [Example 95, (1S,3S)-3-((6-(1-methyl-5-(((propoxy-carbonyl)amino)methyl)-1H-1,2,3-triazol-4-yl)-2-(trifluoromethyl)pyridin-3-yl)oxy)cyclohexane-1-carboxylic acid]"
16,33,Cn1nnc(-c2ccc(O[C@H]3CCC[C@H](C(=O)O)C3)c(C(F)(F)F)n2)c1CNC(=O)OC1CCCC1 [Example 96]
17,30,"COCc1nc(-c2nnn(C)c2CNC(=O)OCc2ccccc2)ccc1O[C@H]1CCC[C@H](C(=O)O)C1 [Example 102, (1S,3S)-3-((6-(5-((((benzyloxy)carbonyl)amino)methyl)-1-methyl-1H-1,2,3-triazol-4-yl)-2-(methoxy-methyl)pyridin-3-yl)oxy)cyclohexane-1-carboxylic acid]"
